Assay results as given in US12295949B2, “Treatment of the gastrointestinal tract with dimeric naphthalimide compounds” (Alumend, LLC, priority 2022, dated 2025).
“And” between values parts separate entries of the source, which are not always exact repeats. Identical values can stand only once. “Also recorded” adds a separate entry of the source.

Assays:
[1] = tested on: esophageal strictures generated by endoscopic mucosal resection (EMR); assay: Esophageal stricture (endoscopic mucosal resection) formation and treatment with compound I(a) plus PTA with light in minipigs; assay type: in vivo, Yucatan minipigs
Description: Five healthy Yucatan minipigs (20-28 kg) were enrolled in the study. For the EMR procedure, each animal was monitored and maintained under anesthesia throughout the duration of the procedure. Each animal was placed in a supine position and elevated to a 5-12 degrees reverse Trendelenburg position, to aid in keeping gastric fluids from coming into the EMR procedural area. A water base lubricant (Astroglide) was used to aid at every insertion of the endoscope.
The upper GI was intubated and surveyed for abnormalities and gastric fluid content via a GIF-XQ140 endoscope. Of the five animals, three animals underwent lavage to remove excess fluid and debris from the esophagus and gastric lumen by washing with saline and suctioning out fluid/debris. A fluoroscopic esophagogram was taken of the target area with the endoscope in place (FIG. 1). The distal tip was measured with a calibrated digital caliper and the measurement was used to calibrate the fluoroscopic measurement tool. […] All representative fluoroscopic and endoscopic imagery are from animal 19P39 unless otherwise stated.
The scope tip was positioned within ±3 cm of the target site. Suction was applied through the gastroscope to visualize the esophageal mucosa at the distal attachment (DA) and to visualize the injection range to capture approximately three-fourths of the esophageal lumen at the target site. The needle from the disposable EMR kit was inserted through the endoscope biopsy channel and into the endoscope field of view (FIG. 2A). The injector slider was pushed until it clicked into position to extend the needle from the sheath. A 10 mL syringe with saline was connected to the injector port. Suction was applied and the injector needle advanced to pierce the target mucosa and to inject a bolus of saline (FIG. 2B). The target area was injected with 0.5 mL to 2.0 mL of saline multiple times to reach a coverage of approximately three-fourths circumference of the target area. Following injections suction was released, and the needle withdrawn from the biopsy channel for insertion of the snare.
The snare was used to remove the blistered mucosal tissue from the treated area. The snare was retracted and inserted into the biopsy channel and advanced into the field of view with the distal sheath. The snare was connected to the electrosurgical unit (Olympus PSD-20). The electrosurgical unit has two settings, one setting is CUT, which is used to cut the tissue and the other setting is COAG, which is used to cauterize the tissue. The snare loop tip was slowly extended approximately 5-10 mm beyond the DA, and CUT was activated marking the base of the tissue bolus by cauterizing the mucosa (FIG. 3A). Suction was used to draw the tissue bolus partially into the DA, and CUT was activated to separate the target mucosa from the submucosa/muscularis. The snare loop was also used as a lasso to remove the partially resected mucosa by cinching the snare closed around the resection (FIG. 3B) and activating the CUT pedal and COAG pedal as needed. The tissue that was not easily removed with the snare was removed with a coagrasper (FIG. 3C). The natural contraction movements of the esophagus posed some difficulty with maintaining a perfect depth to only exposing the submucosal tissue and to maintaining a consistent resection length throughout the resected area. For some animals there were portions of muscularis tissue exposed and some spiraling to the resected area due to the esophageal contractions (FIG. 4). Following the EMR a post procedural fluoroscopic esophagogram (FIG. 5) was taken and the animal recovered from anesthesia.
The EMR in the target area span approximately 270 degrees circumference and less than 2 cm wide.
On Day 21, post stricture induction, animals underwent anesthesia for evaluation of stricture formation and for stricture treatment. No lavage was needed to the esophagus or gastric lumen to complete the treatment on any of the animals. […]

[2] = tested on: ex-vivo healthy swine arterial tissue; assay: Fluorescence microscopy of ex-vivo arterial tissue cross-sections after delivery of 10-8-10 Dimer; assay type: in vitro ADME; details: 2 mg/mL for five minutes, 60x fluorescence microscopy
Experimental: FIGS. 32A and B are fluorescence microscopy images of ex-vivo healthy swine arterial tissue cross-section delivered with 2 mg/mL 10-8-10 Dimer for five minutes; wherein (A) is a fluorescence image at 60× magnification and (B) is at 60× magnification with fluorescence and greyscale overlay. FIGS. 32A and B are 60× fluorescence microscopy images of ex-vivo healthy swine arterial tissue cross-sections treated with 2 mg/mL 10-8-10 Dimer for five minutes; wherein (A) is a fluorescence image and (B) is a fluorescence and greyscale overlay.

[3] = tested on: ex-vivo healthy swine esophageal tissue; assay: Fluorescence microscopy of ex-vivo esophageal tissue cross-section after delivery of 10-8-10 Dimer; assay type: in vitro ADME
Experimental: FIGS. 34A and B are fluorescence microscopy images of ex-vivo healthy swine esophageal tissue cross-section delivered with 4 mg/mL 10-8-10 Dimer for five minutes; wherein (A) is a fluorescence image at 4× magnification, and (B) is at 4× magnification with the fluorescence and greyscale overlay). FIGS. 34A and B are 4× fluorescence microscopy images of ex-vivo healthy swine esophageal tissue cross-section treated with 4 mg/mL 10-8-10 Dimer for five minutes; wherein (A) is a fluorescence image, and (B) is the fluorescence and greyscale overlay. As shown therein, The penetration of 10-8-10 Dimer into ex-vivo esophageal tissue is also vastly different from arterial tissue penetration. […] Treatment with 2 mg/ml of 10-8-10 Dimer was ineffective. In contrast to the treatment of arterial tissue, the 10-8-10 Dimer was efficacious at a concentration 100% greater.

[4] = tested on: esophageal tissue in a healthy swine in vivo esophagus; assay: Crosslink healthy in vivo esophagus at two power levels (delivery, soak, balloon dilatation, light activation); parameters: species or system Yorkshire Cross swine
Description: More specifically, this study evaluated the logistics for esophageal placement of compound I(a) with the use of contrast media, the crosslinking effects of compound I(a), and acute retention of dilation in an in vivo swine model.
An Olympus GIF-140 Endoscope was used in this study. Fluoroscopy was utilized throughout the procedures for confirmation of equipment placement, sample delivery, and removal.
A 60-65 kg Yorkshire Cross (18P118) was used to establish the logistical techniques of the procedure. The animal was fasted for 24 hours prior to the procedure commencing. Post anesthesia swine 18P118 was positioned supinely (on its back) with the surgical table flat. A lavage was performed to flush any remaining contents from the esophagus and stomach. The endoscope was lubricated with a dime size amount of water based Astroglide and inserted into the mouth, passed by the epiglottis, around the pharyngeal diverticulum, through the esophagus and into the stomach. At insertion, the esophagus was partially open, (<5 mm diameter) circular and smooth. The esophagus formed around the catheter and the endoscope inserted instruments, ranging from 4 mm to 12.74 mm in diameter. The endoscope incremental measurements were used to determine the endoscope placement from the front incisor (zero reference point) to the lower esophageal sphincter (71 cm) with the designated working area being between 30 and 60 cm. The endoscope was maintained in the esophagus for the entire procedure.
Using the endoscope, the Edwards Fogarty occlusion catheter and the Vista Brite tip guide catheter were guided down the esophagus and positioned at the 45 cm mark. Positioning them simultaneously, then holding during inflation prevented slippage of the catheters during balloon inflation. The mucosa is loosely attached to the muscularis; the movement of any device in contact with the mucosa influenced the positioning of all inserted devices. […]
Once the volume required to fill the treatment zone was determined the contrast medium was removed. […]

[5] = Study Day 21, fluoroscopic, PTA + compound I(a) w/light, one row per animal
[6] = Study Day 49 necropsy, cross-section of esophagus, compound I(a) + PTA w/ light, one row per animal
[7] = 4 mg/mL for five minutes, 4x fluorescence microscopy

abnormalities of the entire esophagus via endoscope imaging ([1]; Day 21 post treatment, compound I(a) plus PTA balloon with light animals, other than the stricture area): no abnormalities were seen
fluorescence in the submucosa or muscularis [3, 7]: no significant fluorescence
Compound: NCCOCCOCCNc1ccc2c3c(cccc13)C(=O)N(CCOCCOCCN1C(=O)c3cccc4c(NCCOCCOCCN)ccc(c34)C1=O)C2=O [compound I(a)]
penetration at stricture site (yellow coloration of the esophagus) ([1]; 10 mg/ml in PBS, 10 minutes soak, Day 21): Yellow coloration of the esophagus was observed indicating penetration
re-epithelialization (pathology report) ([1]; Day 49 microscopic evaluation, compound I(a) plus PTA balloon with light): complete
Diameter of Stricture (mm) 0 min. post TX ([1]; Study Day 21, fluoroscopic, PTA + compound I(a) (10 mg/ml in PBS, 10 min soak) w/light 74 mW/cm2, one row per animal): 15.88 mm and 13.0 mm and 12.4 mm
Diameter of Stricture (mm) 30 min. post TX [1, 5]: 17.13 mm and 7.5 mm and 14.8 mm
Diameter of Stricture (mm) 60 min. post TX [1, 5]: 13.8 mm and 8.5 mm and 10.9 mm
Length of Stricture (mm) Endoscopic scan post TX ([1]; Study Day 21, post treatment, PTA + compound I(a) w/light, one row per animal): 30 mm (2×) and 17 mm
Length of Stricture (mm) Fluoroscopic ([1]; Study Day 49 (four weeks post treatment), compound I(a) + PTA w/light, one row per animal): 12.6 mm (2×) and 12.8 mm
Stricture Length [1, 6]: 3-11 millimeters and 5 millimeters and 25 millimeters
Stricture Width [1, 6]: 12 millimeters and 10 millimeters and 7 millimeters
Diameter of Stricture Post TX ([1]; Table 3, Study Day 49 (four weeks post treatment), fluoroscopic, compound I(a) + PTA w/light, one row per animal): 4.9 mm and 6.0 mm and 7.4 mm
Diameter of Stricture Post TX ([1]; Table 10, post treatment, 29 days apart, compound I(a) + PTA w/light, one row per animal, in mm): 6.0 and 7.4 and 4.9
percent gain at the stricture site post-treatment ([1]; all compound I(a) plus PTA balloon with light treated animals, Table 10): increase in percent gain
% Stricture Diameter Change Before and Post Treatment ([1]; before and post treatment 29 days apart, compound I(a) + PTA w/light, one row per animal): 22.4% and 94.7% and 169%
restoring the esophagus to a healthier diameter and movement ([1]; compound I(a) plus PTA balloon with light, in comparison with PTA balloon only treatment (19P38)): better success
retention of dilation ([1]; four weeks after treatment with compound I(a) crosslinking): demonstrated retention of dilation
penetration into arterial tissue (fluorescence) [2]: penetrated through the arterial intima and into the media
treatment of esophageal tissue at 2 mg/ml ([3]; 2 mg/ml): ineffective
location of 10-8-10 Dimer fluorescence in esophageal tissue [3, 7]: preponderance of 10-8-10 Dimer fluorescence is in the epithelium
treatment of esophageal tissue at higher concentration ([3]; concentration 100% greater than for arterial tissue (4 mg/mL vs 2 mg/mL)): efficacious
crosslinking of the esophageal tissue (esophagus open at treated sites) ([4]; 10 mg/mL, 10 min soak, balloon dilatation, laser 74 mW/cm2 (site A) or 32 mW/cm2 (sites B, C) for 2 minutes): indications of potential crosslinking were seen at multiple sites; also recorded: opening at sites A, B and C indicate a crosslinking of the esophageal tissue
penetration of esophageal tissue (yellow coloration of the tissue) ([4]; 8 mL of compound I(a) 10 mg/mL in PBS, 10 minutes soak, treatment sites A, B, C, endoscopic observation): penetration was observed; also recorded: yellow coloration of the tissue is indicative of compound I(a) penetration; also recorded: yellow coloration of the esophagus confirmed delivery
irritation of the esophagus on endoscopy or necropsy examination ([4]; post treatment, entire length of the esophagus, slight irritation at site C attributed to TAPAS catheter): No significant irritation
